Patent publication US7009052B2, “Sulfonamide derivatives” (Warner Lambert Company LLC, priority 2003, dated 2006)

Target: T1, androgen receptor (Homo sapiens, UniProt P10275)
T1 sequence (P10275 1-920 Q868H): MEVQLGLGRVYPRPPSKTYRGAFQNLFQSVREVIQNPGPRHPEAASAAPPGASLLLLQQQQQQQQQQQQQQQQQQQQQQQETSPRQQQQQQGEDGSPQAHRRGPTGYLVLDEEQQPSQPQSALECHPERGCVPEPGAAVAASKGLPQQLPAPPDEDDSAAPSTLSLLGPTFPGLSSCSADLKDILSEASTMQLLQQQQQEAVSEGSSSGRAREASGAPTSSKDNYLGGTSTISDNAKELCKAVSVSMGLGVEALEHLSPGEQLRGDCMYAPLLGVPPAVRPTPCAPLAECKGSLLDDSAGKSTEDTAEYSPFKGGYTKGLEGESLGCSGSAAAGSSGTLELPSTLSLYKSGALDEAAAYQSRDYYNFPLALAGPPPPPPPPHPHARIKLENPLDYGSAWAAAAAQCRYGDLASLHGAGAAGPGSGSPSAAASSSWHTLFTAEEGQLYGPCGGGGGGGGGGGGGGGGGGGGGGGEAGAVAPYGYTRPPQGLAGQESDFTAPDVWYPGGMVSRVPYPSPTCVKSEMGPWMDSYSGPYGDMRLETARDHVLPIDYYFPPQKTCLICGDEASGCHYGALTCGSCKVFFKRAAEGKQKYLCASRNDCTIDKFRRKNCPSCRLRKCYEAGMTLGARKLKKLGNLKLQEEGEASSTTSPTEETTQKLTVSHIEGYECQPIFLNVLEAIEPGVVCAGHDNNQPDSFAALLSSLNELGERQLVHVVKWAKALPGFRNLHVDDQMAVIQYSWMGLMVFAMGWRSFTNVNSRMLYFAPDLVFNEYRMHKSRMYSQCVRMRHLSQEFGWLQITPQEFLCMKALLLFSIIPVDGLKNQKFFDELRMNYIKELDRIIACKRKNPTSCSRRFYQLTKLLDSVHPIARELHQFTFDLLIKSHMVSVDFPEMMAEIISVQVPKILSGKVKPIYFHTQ
Experiment: AR Antagonist Cell Assay (MMTV-luciferase reporter, DHT-induced)
Assay type: cell-based
Details: MDA-MB453-MMTV clone 54-19 cells, 100 pM DHT, 17 hr
Procedure, shortened: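 Stably transfected MDA-MB453 cells carrying an ARE-containing MMTV promoter–firefly luciferase reporter, pretreated 30 min with compound at 10 uM or 1 uM in 1% charcoal-treated serum medium. Then stimulated with 100 pM DHT for 17 hr at 37° C. and luminescence read; expressed as % inhibition of DHT-induced signal.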

| Structure (SMILES) | IC50 |
| --- | --- |
| O=c1cc(C(F)(F)F)c2cc(S(=O)(=O)NCc3ccccc3Br)ccc2[nH]1 [Example 156, 2-Oxo-4-trifluoromethyl-1,2-dihydroquinoline-6-sulfonic acid2-bromobenzylamide] | 2.16 µM |
| O=c1cc(C(F)(F)F)c2cc(S(=O)(=O)NCCCO)ccc2[nH]1 [Example 157, 2-Oxo-4-trifluoromethyl-1,2-dihydroquinoline-6-sulfonic acid(3-hydroxypropyl)amide] | 6.73 µM |
| O=c1cc(C(F)(F)F)c2cc(S(=O)(=O)NCc3cc(C(F)(F)F)ccc3F)ccc2[nH]1 [Example 158, 2-Oxo-4-trifluoromethyl-1,2-dihydroquinoline-6-sulfonic acid2-fluoro-5-trifluoromethylbenzylamide] | 6.61 µM |
| O=c1cc(C(F)(F)F)c2cc(S(=O)(=O)NCC(c3ccccc3)c3ccccc3)ccc2[nH]1 [Example 159, 2-Oxo-4-trifluoromethyl-1,2-dihydroquinoline-6-sulfonic acid(2,2-diphenylethyl)amide] | 1.56 µM |
| O=c1cc(C(F)(F)F)c2cc(S(=O)(=O)N[C@H]3CCCC[C@H]3OCc3ccccc3)ccc2[nH]1 [Example 160, 2-Oxo-4-trifluoromethyl-1,2-dihydroquinoline-6-sulfonic acid(2-benzyloxycyclohexyl)amide] | > 10 µM |
